Data as given in patent US10828317B2, “Method of treating bacterial infections” (priority 2016, dated 2020).
Values joined by “and” are separate entries in the source; they are usually repeats but may differ in a detail not shown here. Equal entries are not always repeated. Where two headings read alike, the source gives them in different places.

How the values were obtained:
[1] = system: S. typhimurium EN0466; test: MIC; format: cell-based; settings: Salmonella enterica
[2] = system: K. oxytoca EN0392; test: MIC; format: cell-based; settings: Klebsiella oxytoca
[3] = system: S. aureus EN008; test: MIC, Gram-positive control; format: cell-based, Staphylococcus aureus; settings: Staphylococcus aureus, read-out: MIC
[4] = system: K. pneumoniae EN010; test: MIC, WT; format: cell-based, Klebsiella pneumoniae; settings: Klebsiella pneumoniae, read-out: MIC
[5] = system: A. baumannii EN016; test: MIC, WT; format: cell-based, Acinetobacter baumannii; settings: Acinetobacter baumannii, read-out: MIC
[6] = system: E. coli EN0138; test: MIC, ESBL (CTX-M-9); format: cell-based; settings: Escherichia coli, EN0138, combination AZT+trimethoprim+uridine, Table 17B; read-out: MIC
[7] = system: K. pneumoniae EN0233; test: MIC; format: cell-based; settings: Klebsiella pneumoniae, read-out: MIC
[8] = system: K. pneumoniae EN0142; test: MIC, OXA-48, CTX-M-15; format: cell-based; settings: Klebsiella pneumoniae, EN0142, combination didanosine+trimethoprim+uridine, Table 20
[9] = system: K. pneumoniae EN0143; test: MIC, ESBL (SHV-12); format: cell-based; settings: Klebsiella pneumoniae, read-out: MIC
[10] = system: K. pneumoniae EN0262; test: MIC, ESBL (+), KPC+; format: cell-based
[11] = system: K. pneumoniae EN0436; test: MIC, colistinR; format: cell-based; settings: Klebsiella pneumoniae, read-out: MIC
[12] = system: K. pneumoniae EN0437; test: MIC, colistinR; format: cell-based; settings: Klebsiella pneumoniae, read-out: MIC
[13] = system: Helicobacter pylori APV00918; test: MIC; format: cell-based; settings: Helicobacter pylori, APV00918, combination FdUrd+trimethoprim+uridine, Table 22A
Excerpt: (§1) Inhibition of Heliobacter is important in view of increasing resistance and its association to gastric cancer.

[14] = system: E. coli; test: Murine peritonitis model; format: in vivo, mice; parameters: score at sampling: scale not given here
[15] = system: E. coli strain no 2; test: MIC vs E. coli LMG 15862, penicillin resistant; settings: Escherichia coli
[16] = system: S. flexneri APV00906; test: microbe, parasite or virus in culture; format: cell-based; settings: Shigella flexneri, APV00906
Excerpt: as §1

[17] = system: Helicobacter pylori ATTC43504; test: MIC; format: cell-based; settings: Helicobacter pylori, Table 22A, read-out: MIC
Excerpt: as §1

[18] = Infusion of 1-12 g/sq. m., Leyva et al, 1984; cited from earlier work
[19] = Combination 1 AZT+trimethoprim+uridine, Table 16
[20] = combination AZT+trimethoprim+uridine, Table 6
[21] = combination FdUrd+trimethoprim+uridine, Table 8
[22] = EN0392, Combination 1 AZT+trimethoprim+uridine, Table 16
[23] = EN0392, combination AZT+trimethoprim+uridine, Table 6
[24] = EN0392, combination FdUrd+trimethoprim+uridine, Table 8
[25] = EN008, Combination 2 AZT+trimethoprim+uridine+thymidine, Table 16
[26] = EN008, combination FdUrd+trimethoprim+uridine, Table 8
[27] = EN016, Combination 1 AZT+trimethoprim+uridine, Table 16
[28] = EN016, Combination 2 AZT+trimethoprim+uridine+thymidine, Table 16
[29] = EN016, combination AZT+trimethoprim+uridine, Table 6
[30] = EN016, combination FdUrd+trimethoprim+uridine, Table 8
[31] = EN016, combination didanosine+trimethoprim+uridine, Table 10
[32] = Trimethoprim 30 mg/kg, per mouse

`COc1cc(Cc2cnc(N)nc2N)cc(OC)c1OC` [Trimethoprim, trimethoprim] gave an MIC [1, 19] of 0.064 mg/L, an MIC ([1]; Combination 2 AZT+trimethoprim+uridine+thymidine, Table 16) of 0.5 mg/L and an MIC [1, 20] of 0.06 mg/L. For the same compound, the MIC [1, 21] was 0.25 mg/L, the MIC ([1]; combination didanosine+trimethoprim+uridine, Table 10) was 0.5 mg/L and the MIC [2, 22] was 0.064 mg/L. The MIC ([2]; EN0392, Combination 2 AZT+trimethoprim+uridine+thymidine, Table 16) was 0.5 mg/L, the MIC [2, 23] was 0.06 mg/L and the MIC [2, 24] was 0.25 mg/L. The MIC ([2]; EN0392, combination didanosine+trimethoprim+uridine, Table 10) was 0.5 mg/L, the MIC ([3]; EN008, Combination 1 AZT+trimethoprim+uridine, Table 16) was 1 mg/L and the MIC [3, 25] was over 4 mg/L. The MIC ([3]; EN008, combination AZT+trimethoprim+uridine, Table 6) was 1 mg/L, the MIC [3, 26] was under 0.016 mg/L and the MIC ([3]; EN008, combination didanosine+trimethoprim+uridine, Table 10) was 1 mg/L. It also gave an MIC ([4]; EN010, Combination 2 AZT+trimethoprim+uridine+thymidine, Table 16) of 1 mg/L, an MIC ([4]; EN010, combination AZT+trimethoprim+uridine, Table 6) of 0.5 mg/L and an MIC ([4]; EN010, combination FdUrd+trimethoprim+uridine, Table 8) of 1 mg/L. The MIC ([4]; EN010, combination didanosine+trimethoprim+uridine, Table 10) was 1 mg/L, the MIC [5, 27] was over 4 mg/L and the MIC [5, 28] was over 4 mg/L. The MIC [5, 29] was over 4 mg/L, the MIC [5, 30] was 8 mg/L and the MIC [5, 31] was over 8 mg/L. For the same compound, the MIC [6] was 0.016 mg/L, the MIC ([7]; EN0233, combination FdUrd+trimethoprim+uridine, Table 19) was 1 mg/L and the MIC ([7]; EN0233, combination didanosine+trimethoprim+uridine, Table 20) was 2 mg/L. The MIC [8] was over 8 mg/L, the MIC ([9]; EN0143, combination AZT+trimethoprim+uridine, Table 17B) was over 4 mg/L and the MIC ([9]; EN0143, combination FdUrd+trimethoprim+uridine, Table 19) was over 8 mg/L. It also gave an MIC ([9]; EN0143, combination didanosine+trimethoprim+uridine, Table 20) of over 8 mg/L, an MIC ([10]; Klebsiella pneumoniae, EN0262, combination AZT+trimethoprim+uridine, Table 17B and 18, read-out: MIC) of 0.5 mg/L and an MIC ([10]; Klebsiella pneumoniae, EN0262, combination FdUrd+trimethoprim+uridine, Table 19 and 21, read-out: MIC) of 4 mg/L. It also gave an MIC ([10]; Klebsiella pneumoniae, EN0262, combination didanosine+trimethoprim+uridine, Table 20 and 21, read-out: MIC) of 4 mg/L, an MIC ([10]; combination AZT+trimethoprim+uridine, Table 17B and 18) of 0.5 mg/L and an MIC ([10]; combination FdUrd+trimethoprim+uridine, Table 19 and 21) of 4 mg/L. For the same compound, the MIC ([10]; combination didanosine+trimethoprim+uridine, Table 20 and 21) was 4 mg/L, the MIC ([11]; EN0436, combination FdUrd+trimethoprim+uridine, Table 19) was 0.5 mg/L and the MIC ([11]; EN0436, combination didanosine+trimethoprim+uridine, Table 20) was 0.5 mg/L. It also gave an MIC ([12]; EN0437, combination AZT+trimethoprim+uridine, Table 17B) of over 4 mg/L, an MIC ([12]; EN0437, combination FdUrd+trimethoprim+uridine, Table 19) of over 8 mg/L and an MIC ([12]; EN0437, combination didanosine+trimethoprim+uridine, Table 20) of over 8 mg/L. For the same compound, the MIC [13] was 0.125 mg/L, the “CFU/ml PF” value [14, 32] was 9.50E+03 CFU/ml and 1.60E+06 CFU/ml and 3.25E+05 CFU/ml and 4.75E+05 CFU/ml and the “log CFU/ml PF” value [14, 32] was 3.98 log CFU/ml and 6.20 log CFU/ml and 5.51 log CFU/ml and 5.68 log CFU/ml. For the same compound, the score at sampling [14, 32] was 1, the “inhibition in mice infected with E. coli (in words)” value ([14]; murine peritonitis model) was “slight inhibition” and the MIC ([15]; NO2, read-out: MIC FdUrd/Trimethoprim (1:2), uridine 10 μg/ml, thymidine 10 μM) was over 40 mg/L. It also gave an MIC ([15]; NO2, read-out: MIC FdUrd/Trimethoprim (1:2), uridine 100 μg/ml, thymidine 10 μM) of over 40 mg/L.

`O=c1ccn([C@@H]2O[C@H](CO)[C@@H](O)[C@H]2O)c(=O)[nH]1` [Uridine, uridine] gave an MIC [1, 19] of 6.4 mg/L, an MIC [1, 20] of 16 mg/L and an MIC [1, 21] of 13 mg/L. It also gave an MIC [2, 22] of 6.4 mg/L, an MIC [2, 23] of 16 mg/L and an MIC [2, 24] of 13 mg/L. For the same compound, the MIC [3, 25] was over 400 mg/L, the MIC [3, 26] was under 0.8 mg/L and the MIC [5, 27] was over 400 mg/L. For the same compound, the MIC [5, 28] was over 400 mg/L, the MIC [5, 29] was over 1000 mg/L and the MIC [5, 30] was 400 mg/L. The MIC [5, 31] was over 400 mg/L, the MIC [8] was over 400 mg/L and the MIC [16] was over 400 mg/L. The MIC ([17]; ATTC43504, combination AZT+trimethoprim+uridine) was 13 mg/L, the MIC ([17]; ATTC43504, combination FdUrd+trimethoprim+uridine) was 6 mg/L and the plasma levels [18] was “up to 500 μg/ml”.
